Reference: US20240042066A1, “FIBROBLAST ACTIVATION PROTEIN INHIBITOR” (BOOMRAY PHARMACEUTICALS CO., LTD., priority 2020, published 2024)

Assays:
[1] = Determination of the half-life in vivo by imaging healthy mice with 68Ga-TEFAPI-06; conditions: PET imaging, SUV at the heart, 68Ga label, tail vein injection; for half-life: mouse, blood, intravenous, 37 MBq
Method: A germanium-gallium generator was eluted with 5 mL of 0.6 M high-purity hydrochloric acid to obtain Ga-68 hydrochloric acid solution. 1 mL of the eluted Ga-68 solution was taken, 100 μL of 3M sodium hydroxide and 130 μL of 3M sodium acetate were added to adjust the acidity, the final pH was 4.0, 50 μg of TEFAPI-06 precursor was added, and the reaction mixture was heated to 90° C., and maintained at the temperature for 10 minutes. The reaction solution was passed through a C18 column to remove free ions, and then the C18 column was eluted with ethanol solution. Labeled ^68Ga-TEFAPI-06 was obtained.
37 MBq labeled product was taken, 200 μL of normal saline was added for dilution, the drug was drawn with an insulin syringe for later use, and ethanol content in the drug was not higher than 5%. Healthy mice were anesthetized in advance and then placed on a PET/CT collection bed and an indwelling needle was placed at the tail vein. The syringe was attached to the indwelling needle, and collection of PET data was started at the zero moment of needle pushing. Collection time points were 0-60 min, 2 h, 3 h, 4 h, and 5 h respectively. After the collection, the data was reconstructed with professional software, and reconstruction conditions were to reconstruct the data at intervals of every minute for the first 5 minutes, reconstruct the data every 5 minutes in 5-60 minutes, and reconstruct the data at each of the other time points. The collected data was processed by PET reconstruction software to obtain continuous image. In PET processing software, a fixed region was depicted at the heart of the mouse, and SUV-Mean and SUV-Max values at the heart were obtained. The obtained SUV was simulated via data processing software.

[2] = system: PDX mouse model of pancreatic cancer; assay: Long-duration PET imaging with 86Y-TEFAPI-06 in a PDX mouse model of pancreatic cancer; format: in vivo; conditions: after 18 hours
Method: Y-86 is a positron nuclide with half-life of 14.6 hours and can be radiolabeled with DOTA, and therefore, is very suitable for long-duration detection of the distribution of TEFAPI molecule in vivo. 1 mL of Y-86 hydrochloric acid was taken, 100 μL of 3M sodium hydroxide and 130 μL of 3M sodium acetate were added to adjust acidity, the final pH was 4.0, 50 μg of TEFAPI-06 precursor was added, and the reaction mixture was heated to 90° C., and maintained at the temperature for 10 minutes. The reaction solution was passed through a C18 column to remove free ions, and then the C18 column was eluted with ethanol solution. Labeled ^86Y-TEFAPI-06 was obtained. The labeled ^86Y-TEFAPI-06 was diluted with normal saline, and 7.4 Mbq of the resulting solution was injected to each mouse. PET scanning imaging was performed at 0.5, 2, 6, 12, 18, 24 and 36 h after injection, and PET image processing software was used for reconstruction. The obtained PET image is shown in FIG. 3, SUV values were marked at the tumor and heart of the mouse, and a curve was obtained based on the change of the SUV value with time.

PDX pancreatic cancer = assay: Treatment of PDX pancreatic cancer in mice with 177Lu-TEFAPI-06; format: in vivo; conditions: Lu-177 label, treatment dose 3.7 MBq
Description: There were 5 mice in each group. The treatment dose was 3.7 MBq. […] In order to evaluate the therapeutic effect, the inventors performed physical examination via FAPI-04 imaging on mice before and after the treatment, and the results are shown in FIG. 5.

FAP = assay: Competitive inhibition experiment of TEFAPI-06 in mice with PDX pancreatic cancer (68Ga-FAPI-04 PET); format: in vivo
Method: In order to verify the specificity of TEFAPI-06 against a FAP target, the inventors performed PET imaging on the same batch of mice before and after inhibition in the competitive inhibition experiment. According to the Y-86 long-duration PET imaging, the uptake of the tumor reached a peak between 18 hours and 24 hours after drug injection. Therefore, ^68Ga-FAPI-04 imaging was first performed on tumor-bearing mice to determine that the mice had tumor uptake. After 48 hours of standing to ensure metabolism of ^68Ga-FAPI-04, two mice were injected with 300 μg of TEFAPI-06 molecules, and 18 hours after injection, PET molecular imaging of ^68Ga-FAPI-04 was performed on the mice injected with TEFAPI-06 molecules.

| half-life [1] [h] | kidney metabolism [2] | blood half-life [1] [h] | SMILES | tumor/normal tissue uptake ratio [2] | tumor growth (tumor growth curve) (PDX pancreatic cancer) | tumor uptake of 68Ga-FAPI-04 after injection of TEFAPI-06 (inhibition) (FAP; 300 μg TEFAPI-06, 18 hours before 68Ga-FAPI-04 PET, read 30 minutes after injection) | target site (specificity) (FAP; conclusion of competitive inhibition experiment) |
| --- | --- | --- | --- | --- | --- | --- | --- |
| 0.433 | – | – | N#C[C@@H]1CC(F)(F)CN1C(=O)CNC(=O)c1ccnc2ccc(OCCCN3CCN(C(=O)CN4CCN(CC(=O)O)CCN(CC(=O)O)CCN(CC(=O)O)CC4)CC3)cc12 [FAPI-04, reference compound] | – | – | – | – |
| 6.67 | basically cleared | 6.63 | N#C[C@@H]1CC(F)(F)CN1C(=O)CNC(=O)c1ccnc2ccc(OCCCN3CCN(C(=O)[C@H](CCCCNC(=O)CN4CCN(CC(=O)O)CCN(CC(=O)O)CCN(CC(=O)O)CC4)NC(=O)CCCC(=O)NC(CCCCNC(=O)CCCc4ccc(I)cc4)C(=O)O)CC3)cc12 (some centres unmarked) [TEFAPI-06] | greater than 10 | significantly inhibited | basically no additional uptake at the tumor | FAP |
